The nature of data set [1]: Stability constant (binding ability) towards manganese. The settings on record: relative to the EDTA chelate.
The conditions of data set [2]: in vivo; cited from earlier work.
For data set [3] the following is noted: in vivo; cited from earlier work. The source holds these as a separate data set.
A short description of data set [4]: Relaxivities (T1, T2) of protons in plasma exposed to the complexes. It counts as physicochemical. Here is the method: (§1) c) Relaxitivities of protons present in water and plasma exposed to the complexes of (a) and (b) (at 10 mHz) (37° C.) in milliseconds:
(§2) c) Relaxivities of protons present in water and plasma exposed to (a) and (b) at 10 mHz (37 C) in milliseconds: […]

Data set [5] in a line: Relaxivities (T1, T2) of protons in water exposed to the complexes. The settings on record: Table 5. In kind it is physicochemical. The method, then:
as §1, §2

For data set [6] the following is noted: in vivo.
[7] abbreviates: Table 5, 1.56 × 10^-3 moles/liter.
[8] abbreviates: Table 5, 3.13 × 10^-3 moles/liter.
Setting [9] is: Table 5, 6.25 × 10^-3 moles/liter.

The source of these data is patent publication US5039512A, “NMR imaging with paramagnetic polyvalent metal salts of poly-(acid-alkylene-amino)-alkanes” (Salutar, Inc., priority 1987, dated 1991).

As for `O=C(O)CN(CC(=O)O)[C@@H]1CCCC[C@H]1N(CC(=O)O)CC(=O)O` (relative stereo) [DCTA, trans-N,N,N',N'-tetra-carboxymethyl-1,2-diaminocyclohexane], the “Stability constant (binding ability) towards manganese” value in data set [1] is “several thousand times better”.

On to `O=C([O-])CN(CCN(CC(=O)[O-])CC(=O)O)CCN(CC(=O)[O-])CC(=O)O.[Gd+3]` [Gd DTPA, gadolinium chelate of diethylene-triamine-pentaacetic acid], for which the “Uptake by solid organs” value in data set [2] was “virtually no uptake by any solid organ”. For the same compound, the “Post T1 fat” value in data set [3] was 185 milliseconds. Also, in data set [3], the “Post T1 kidneys” value was 205 milliseconds. Besides, in data set [3], the “Post T1 liver” value was 195 milliseconds. For the same compound, the “Post T1 muscle” value in data set [3] was 335 milliseconds. Also, the “Post T1 spleen” value in data set [3] is recorded as 285 milliseconds. Further, the T1 plasma came out at 877 ms in data set [4] (9.77 × 10^-5 moles/liter); 134 ms in data set [4] (setting [7]); 636 ms in data set [4] (Table 5, 1.95 × 10^-4 moles/liter); 69 ms in data set [4] (setting [8]); 405 ms in data set [4] (Table 5, 3.91 × 10^-4 moles/liter); 39 ms in data set [4] (setting [9]). Further, in data set [4] (Table 5, 7.81 × 10^-4 moles/liter), the T1 plasma is 240 ms. The T2 plasma in data set [4] (setting [7]) was 116 ms; in data set [4] (setting [8]) it was 61 ms; in data set [4] (setting [9]) it was 31 ms. For the same compound, the T1 water in data set [5] (1.56 × 10^-3 moles/liter) came out at 163 ms; in data set [5] (1.95 × 10^-4 moles/liter), 1015 ms; in data set [5] (3.13 × 10^-3 moles/liter), 83 ms; in data set [5] (3.91 × 10^-4 moles/liter), 582 ms; in data set [5] (6.25 × 10^-3 moles/liter), 40 ms; in data set [5] (7.81 × 10^-4 moles/liter) it was 309 ms. Further, the T2 water in data set [5] (1.56 × 10^-3 moles/liter) came to 155 ms; in data set [5] (3.13 × 10^-3 moles/liter), 76 ms; in data set [5] (6.25 × 10^-3 moles/liter), 35 ms. The Organ distribution entry in data set [6] is reported as “does not substantially interact with the hepatobiliary system”.
